# Measured values published in US20130224219A1, “DRUG AND METHOD FOR THE PROPHYLAXIS OF HIV INFECTION AND FOR THE PROPHYLAXIS AND TREATMENT OF DISEASES CAUSED BY OR ASSOCIATED WITH HIV, INCLUDING AIDS” (priority 2010, published 2013).
# System: HIV-1-LAI
# Assay: Inhibition of HIV replication in human peripheral blood mononuclear cells infected in vitro, p24 ELISA
# Assay type: cell-based
# Settings: Human immunodeficiency virus 1, PBMC, read-out: inhibition of HIV replication (nucleocapsid core protein p24 in cell supernatants)
# Protocol: Antiretroviral action of the claimed medicinal agent was studied by inhibiting the replication of HIV in the culture of mononuclear cells of the peripheral human blood which were infected in vitro by the strain of HIV-1-LAI. Effective inhibition of HIV replication was evaluated by the content of basic nuclecapsid protein r24 in the supernatant of HIV.
# Human peripheral blood mononuclear cells were isolated from the blood of healthy seronegative donors by density gradient centrifugation of Ficoll-Hypaque. Cells were activated for 3 days with […] phytogemmaglyutin P and 5 ME/ml of recombinant human interleukin-2 […]
# Cell culture supernatants were collected at day 7 after infection. Efficacy of the drugs was determined by the inhibition of HIV replication, which was evaluated by content nucleocapsid core protein p24 of HIV in cell supernatants by ELISA (Retrotek Elisa kit).
# Antiretroviral effect of the claimed medicinal agent studied by inhibiting HIV replication in cultured peripheral blood mononuclear cells of human infected in vitro HIV-1-LAI. Effective inhibition of HIV replication was evaluated by the content of basic nucleocapsid protein p24 in the supernatants of HIV. […]
structure (smiles),measurement,value
"Cc1cn([C@H]2C[C@H](N=[N+]=[N-])[C@@H](CO)O2)c(=O)[nH]c1=O [AZT, zidovudine]",inhibition at 1 µM,99%
